Test results reported in patent US9919031B2, “Use of the insulin-like-growth factor 1 splice variant MGF for the prevention of myocardial damage” (THE BOARD OF TRUSTEES OF UNIVERSITY OF ILLINOIS, priority 2002, dated 2018).

How the values were obtained:
cardiac myocytes = assay: Induction of endogenous MGF expression by PMA, real time RT-PCR; format: cell-based
Protocol: Primary cultures of cardiac myocytes were cultured in serum free media for 24 hours prior to the addition of PMA (200 nM). After 30 min total RNA was extracted and MGF gene expression was assayed using real time RT-PCR. […] B. A repeat of the initial experiment but in the third group PMA was added to the cultures without changing the media. MGF expression is increased to a great extent than when PMA is added with fresh media.
In order to investigate which signal appear to modulate MGF expression in cardiac myocytes, several drugs were applied to cardiomyocyte cultures. These in turn activate signal transduction molecules either directly or indirectly through receptor coupled molecules. One such drug is phorbol myristate acetate (PMA), a phorbol ester that specifically activates the Protein Kinase C family of serine/threonine signaling kinases. […] When the amount of MGF is compared to the amount of liver-type IGF in the control conditions, there is substantially less in the cardiac myocytes. […] When the same experiment was repeated but the PMA was added to myocyte cultures in which the media had not been changed for 24 hours prior to the addition of the PMA, the increase in MGF expression is even greater than when PMA is added along with fresh media (FIG. 5B).

[1] = animal models of cardiomyopathy and clinical trials; cited from earlier work
[2] = rats, recombinant L.IGF-I administered after ischemia; cited from earlier work

In the case of CCCCCCCCCCCCCC(=O)O[C@@H]1[C@@H](C)[C@@]2(O)[C@@H](C=C(CO)C[C@]3(O)C(=O)C(C)=C[C@@H]23)[C@@H]2C(C)(C)[C@]12OC(C)=O [PMA, phorbol myristate acetate], the “level of IGF expression” value (cardiac myocytes; PMA 200 nM, 30 min) is reported as “does not change”, the “expression of the endogenous MGF gene” value (cardiac myocytes; PMA 200 nM, 30 min, serum free media 24 hours, added with fresh media) is reported as “significant increase” and the “increase in MGF expression, media not changed” value (cardiac myocytes; PMA added to cultures whose media had not been changed for 24 hours, versus PMA with fresh media) is reported as “even greater”.
In the case of “growth hormone: growth hormone; induces expression of systemic insulin-like growth factors via the liver”, the cardiac function [1] is listed as “Significant improvement”.
In the case of “recombinant L.IGF-I: recombinant systemic, liver-type IGF-I”, the “cell death following transient myocardial ischemia” value [2] is listed as “reduced cell death”.
